Laboratory results reported in patent US20020045638A1, “Method of treating estrogen receptor positive carcinoma” (priority 2000, published 2002).

What was measured:
[1] = system: BG-1 human ovarian cancer cells; assay: Inhibition of growth of BG-1 ovarian cancer cells (MTT), with MacSynergy II synergy analysis; format: cell-based; details: for Percent Inhibition: Table G, CCI-779 0 nM
Description: In these test procedures, rapamycin 42-ester with 3-hydroxy-2-(hydroxymethyl)-2-methylpropionic acid was used as a representative rapamycin, and 2-(4-hydroxy-phenyl)-3-methyl-1-[4-(2-piperdin-1-yl-ethoxy)-benzyl-1 H-indol-5-ol, raloxifene, and 4-hydroxytamoxifen were used as representative antiestrogens.
One day before the experiment, cells were plated in 96-well plates at a cell density of 2,500 cells/well in IMEM medium supplemented with 10% fetal bovine serum. The next day, cells were treated with various concentrations of antiestrogen and rapamycin 42-ester with 3-hydroxy-2-(hydroxymethyl)-2-methylpropionic acid (referred to as CCI-779 in the tables below). Five or six-days later, cell growth was monitored.

[2] = system: MCF-7 human breast cancer cells; assay: Inhibition of growth of MCF-7 breast cancer cells (MTT), with MacSynergy II synergy analysis;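 also: cells treated five or six days with single agents or combinations, growth read by MTT, synergy surface equals observed % inhibition minus Bliss additive prediction, values under 0% signal antagonism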
Description: MCF-7 human breast cancer cells were maintained at 37° C. in a humidified atmosphere of 5% CO2 and 95% air in IMEM medium supplemented with 10% fetal bovine serum. […] One day before the experiment, cells were plated in 96-well plates at a cell density of 2,500 cells/well in IMEM medium supplemented with 10% fetal bovine serum. The next day, cells were treated with various concentrations of antiestrogen and rapamycin 42-ester with 3-hydroxy-2-(hydroxymethyl)-2-methylpropionic acid (referred to as CCI-779 in the tables below). Five or six-days later, cell growth was monitored. MTT solution (20 ul) (0.5 mg/ml) was added to each well and cells were incubated for an additional 4 h. The solution was then removed and 150 ul of DMSO added. The intensity of dark blue color corresponding to number of cells was read at 540 nm with an automated plate reader.
Briefly, theoretical additive interactions were calculated from the dose-response curves of each individual drug based on Bliss independence model. The calculated additive surface was then subtracted from the experimental surface to obtain a synergy surface representing % inhibition above the calculated additive value-synergy index. […] Likewise, any peak below the 0% plane is indicative of antagonism.

MCF-7 tumors = assay: Growth of MCF-7 breast carcinoma implanted in nude mice; format: in vivo; details: for Tumor size (mean ± standard error): 20 mg/kg ERA-923 PO qd days 1-35
Description: In the third standard pharmacological test procedure, mice implanted with MCF-7 tumors were treated with a combination of ERA-923 and CCI-779. […] ERA-923 was dissolved in 1% Tween 80 and 0.9% NaCl Injection USP. Drug was aliquoted into daily doses using 10.0 ml glass bottles and frozen at −20° C. until needed. CCI-779 was made fresh using a 5% ETOH, 4.9% Phosal and 0.1% Tween 80 in Sterile Water. 0.2 ml of each drug was given orally starting the day after tumor implantation. ERA 923 was given daily for the duration of the experiment and CCI-779 was given every other day for the first 10 days. The control vehicles were given on the same regime as the drugs. MCF7 cells were cultured in IMEM containing 5% Fetal Bovine Serum with passages varying from 2-20. After trypsinization tumors were resuspended in IMEM with 2% Serum at a 1:1 ratio with Matrigel. 10 million cells were injected subcutaneously into the mammary tissue of each mouse using a 1.0 ml tuberculin syringe with a 23 3/4 gauge needle. Five to six week old female ovariectomized athymic nu/nu mice (Charles River Labs: Wilmington, Mass.) weighing from 20.0-23.0 g were used. The animals were housed 5 to a cage in a Microisolator Open Rack System (Lab Products: Maywood, N.J.). Each mouse received a 17β-Estradiol pellet (0.72 mg/pellet-60 day release). The pellets were injected with a 10 gauge trochar into the lateral side of the neck between the ear and the shoulder 1-2 weeks prior to tumor injection. Control groups were 15 mice/vehicle whereas the drug groups were 10 mice/drug. Tumors were measured weekly by means of solar calipers (Cole-Parmer Instuments: Vernon Hills, Ill.) and tumor weights were estimated from tumor diameters by the following formula:
Tumor weight (mg)=tumor length (mm)×tumor width (mm)^2/2.
Mice were euthanized 36 days after tumor injection by CO2 inhalation. […] Nude mice bearing MCF-7 tumors were given ERA-923, CCI-779 or the combination of both drugs.

[3] = BG-1, antiestrogen in combination with CCI-779, MacSynergy II, Bliss independence model
[4] = MCF-7, antiestrogen in combination with CCI-779, MacSynergy II, Bliss independence model

## Cc1c(-c2ccc(O)cc2)n(Cc2ccc(OCCN3CCCCC3)cc2)c2ccc(O)cc12 [ERA-923]
[1]; [3]
  Antagonsim: 0.0 μM^2%
  Synergy: 25.9 μM^2%
[1]; ERA-923 0.25 nM
  Percent Inhibition: 14.72%
[1]; ERA-923 0.5 nM
  Percent Inhibition: 24.14%
[1]; ERA-923 1 nM
  Percent Inhibition: 48.93%
[1]; ERA-923 2 nM
  Percent Inhibition: 57.19%
[1]; ERA-923 3 nM
  Percent Inhibition: 72.54%
[1]; ERA-923 4 nM
  Percent Inhibition: 80.34%
[1]; ERA-923 5 nM
  Percent Inhibition: 75.94%
[2]; ERA-923 in the presence of non-inhibitory concentrations of CCI-779
  increase of growth-inhibitory effect as estimated by the IC50: approximately 10 fold
[2]; [4]
  Antagonsim: 0.0 μM^2%
  Synergy: 138.0 μM^2%
[2]; Table A, CCI-779 0 nM, ERA-923 0.25 nM
  Percent Inhibition: 9%
[2]; Table A, CCI-779 0 nM, ERA-923 0.5 nM
  Percent Inhibition: 7.59%
[2]; Table A, CCI-779 0 nM, ERA-923 1 nM
  Percent Inhibition: 37.56%
[2]; Table A, CCI-779 0 nM, ERA-923 2 nM
  Percent Inhibition: 54.65%
[2]; Table A, CCI-779 0 nM, ERA-923 3 nM
  Percent Inhibition: 59.39%
[2]; Table A, CCI-779 0 nM, ERA-923 4 nM
  Percent Inhibition: 60.04%
[2]; Table A, CCI-779 0 nM, ERA-923 5 nM
  Percent Inhibition: 61.12%
[2]; Table D, ERA-923 0 nM + ERA-923 0.25 nM
  Percent Inhibition: −0.78%
[2]; Table D, ERA-923 0 nM + ERA-923 0.5 nM
  Percent Inhibition: 26.09%
[2]; Table D, ERA-923 0 nM + ERA-923 1 nM
  Percent Inhibition: 54.91%
[2]; Table D, ERA-923 0 nM + ERA-923 2 nM
  Percent Inhibition: 71.82%
[2]; Table D, ERA-923 0 nM + ERA-923 3 nM
  Percent Inhibition: 87.65%
[2]; Table D, ERA-923 0 nM + ERA-923 4 nM
  Percent Inhibition: 78.72%
[2]; Table D, ERA-923 0 nM + ERA-923 5 nM
  Percent Inhibition: 79.25%
[2]; Table D, ERA-923 0.25 nM + ERA-923 0 nM
  Percent Inhibition: 6.69%
[2]; Table D, ERA-923 0.25 nM + ERA-923 0.25 nM
  Percent Inhibition: 35.93%
[2]; Table D, ERA-923 0.25 nM + ERA-923 0.5 nM
  Percent Inhibition: 56.79%
[2]; Table D, ERA-923 0.25 nM + ERA-923 1 nM
  Percent Inhibition: 64.27%
[2]; Table D, ERA-923 0.25 nM + ERA-923 2 nM
  Percent Inhibition: 76.33%
[2]; Table D, ERA-923 0.25 nM + ERA-923 3 nM
  Percent Inhibition: 78.99%
[2]; Table D, ERA-923 0.25 nM + ERA-923 4 nM
  Percent Inhibition: 78.39%
[2]; Table D, ERA-923 0.25 nM + ERA-923 5 nM
  Percent Inhibition: 79.68%
[2]; Table D, ERA-923 0.5 nM + ERA-923 0 nM
  Percent Inhibition: 8.17%
[2]; Table D, ERA-923 0.5 nM + ERA-923 0.25 nM
  Percent Inhibition: 53.61%
[2]; Table D, ERA-923 0.5 nM + ERA-923 0.5 nM
  Percent Inhibition: 63.08%
[2]; Table D, ERA-923 0.5 nM + ERA-923 1 nM
  Percent Inhibition: 68.58%
[2]; Table D, ERA-923 0.5 nM + ERA-923 2 nM
  Percent Inhibition: 73.71%
[2]; Table D, ERA-923 0.5 nM + ERA-923 3 nM
  Percent Inhibition: 81.21%
[2]; Table D, ERA-923 0.5 nM + ERA-923 4 nM
  Percent Inhibition: 79.57%
[2]; Table D, ERA-923 0.5 nM + ERA-923 5 nM
  Percent Inhibition: 81.43%
[2]; Table D, ERA-923 1 nM + ERA-923 0 nM
  Percent Inhibition: 42.1%
[2]; Table D, ERA-923 1 nM + ERA-923 0.25 nM
  Percent Inhibition: 66.83%
[2]; Table D, ERA-923 1 nM + ERA-923 0.5 nM
  Percent Inhibition: 75.09%
[2]; Table D, ERA-923 1 nM + ERA-923 1 nM
  Percent Inhibition: 74.24%
[2]; Table D, ERA-923 1 nM + ERA-923 2 nM
  Percent Inhibition: 74.07%
[2]; Table D, ERA-923 1 nM + ERA-923 3 nM
  Percent Inhibition: 76.56%
[2]; Table D, ERA-923 1 nM + ERA-923 4 nM
  Percent Inhibition: 80.45%
[2]; Table D, ERA-923 1 nM + ERA-923 5 nM
  Percent Inhibition: 82.97%
[2]; Table D, ERA-923 2 nM + ERA-923 0 nM
  Percent Inhibition: 67.81%
[2]; Table D, ERA-923 2 nM + ERA-923 0.25 nM
  Percent Inhibition: 74.73%
[2]; Table D, ERA-923 2 nM + ERA-923 0.5 nM
  Percent Inhibition: 75.08%
[2]; Table D, ERA-923 2 nM + ERA-923 1 nM
  Percent Inhibition: 75.36%
[2]; Table D, ERA-923 2 nM + ERA-923 2 nM
  Percent Inhibition: 75.03%
[2]; Table D, ERA-923 2 nM + ERA-923 3 nM
  Percent Inhibition: 78.5%
[2]; Table D, ERA-923 2 nM + ERA-923 4 nM
  Percent Inhibition: 81.23%
[2]; Table D, ERA-923 2 nM + ERA-923 5 nM
  Percent Inhibition: 82.02%
[2]; Table D, ERA-923 3 nM + ERA-923 0 nM
  Percent Inhibition: 52.23%
[2]; Table D, ERA-923 3 nM + ERA-923 0.25 nM
  Percent Inhibition: 75.24%
[2]; Table D, ERA-923 3 nM + ERA-923 0.5 nM
  Percent Inhibition: 76.06%
[2]; Table D, ERA-923 3 nM + ERA-923 1 nM
  Percent Inhibition: 77.68%
[2]; Table D, ERA-923 3 nM + ERA-923 2 nM
  Percent Inhibition: 76.67%
[2]; Table D, ERA-923 3 nM + ERA-923 3 nM
  Percent Inhibition: 81.51%
[2]; Table D, ERA-923 3 nM + ERA-923 4 nM
  Percent Inhibition: 83.2%
[2]; Table D, ERA-923 3 nM + ERA-923 5 nM
  Percent Inhibition: 82.87%
[2]; Table D, ERA-923 4 nM + ERA-923 0 nM
  Percent Inhibition: 74.49%
[2]; Table D, ERA-923 4 nM + ERA-923 0.25 nM
  Percent Inhibition: 79.39%
[2]; Table D, ERA-923 4 nM + ERA-923 0.5 nM
  Percent Inhibition: 80.92%
[2]; Table D, ERA-923 4 nM + ERA-923 1 nM
  Percent Inhibition: 77.2%
[2]; Table D, ERA-923 4 nM + ERA-923 2 nM
  Percent Inhibition: 78.2%
[2]; Table D, ERA-923 4 nM + ERA-923 3 nM
  Percent Inhibition: 79.28%
[2]; Table D, ERA-923 4 nM + ERA-923 4 nM
  Percent Inhibition: 83.28%
[2]; Table D, ERA-923 4 nM + ERA-923 5 nM
  Percent Inhibition: 85.92%
MCF-7 tumors; day 14 after tumor implantation
  Tumor size (mean ± standard error): 480 ± 91 mg
MCF-7 tumors; day 21 after tumor implantation
  Tumor size (mean ± standard error): 679 ± 127 mg
MCF-7 tumors; day 28 after tumor implantation
  Tumor size (mean ± standard error): 842 ± 163 mg
MCF-7 tumors; day 36 after tumor implantation
  Tumor size (mean ± standard error): 993 ± 197 mg
MCF-7 tumors; nude mice bearing MCF-7 tumors, growth inhibition=experimental value−200 (baseline)/control value −200
  inhibition of tumor growth: approximately 35%
